Bridges are numbered along the chain shown (N, C = ends). Where no end group is shown, it is not given here.
Tested on: H-125 cells (Non-Small Lung Cell Cancer)
Test: antitumor effect in human tumors implanted in nude mice
Assay type: in vivo, BalbC nude mice
Details: H-125 subcutaneous, 1 to 10 mg/Kg every other day for one month, FIG. 6
Experimental: For these experiments, 6-8 week old female BalbC nude mice were used. The tumor implantation was performed using H-125 cells (Non-Small Lung Cell Cancer) that were resuspended in saline solution (PBS) at 1000 000 cells/ml. Cell suspension was inoculated subcutaneously in the abdomen. Peptide administration (sequence 1 on the list) was made together with the cells and continued every other day until completing one month of treatment. In this assay, doses ranging between 1 and 10 mg/Kg of weight were evaluated. To examine the antitumor effect, parameters like tumor mass and survival of the animals were evaluated.

CSVRQGPVQKC (disulfide 1-11 (inferred)) [sequence 1 on the list]
inhibition of tumor progression: effective in terms of the inhibition of tumor progression
